# Source: patent publication US20060069132A1, “Azolecarboxamide herbicides” (priority 2004, published 2006)
# What was measured:
# johnsongrass = test: Test C pre-/postemergence herbicide test; format: in vivo, Sorghum halepense
# In short: (§1)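 Seeds were planted and sprayed preemergence with test chemicals in a non-phytotoxic solvent mixture containing surfactant; postemergence treatments went onto plants 2 to 18 cm tall (1- to 4-leaf stage). After 12 to 14 days in a greenhouse, injury was rated visually against untreated controls on a 0–100 scale.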
# yellow nutsedge = test: Test C pre-/postemergence herbicide test; format: in vivo, Cyperus esculentus
# In short: as §1
# Surinam grass = test: Test C pre-/postemergence herbicide test; format: in vivo, Urochloa decumbens
# In short: as §1
# chickweed = test: Test C postemergence herbicide test; format: in vivo, Stellaria media
# In short: (§2)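 Postemergence sprays were applied to plants 2 to 18 cm tall (1- to 4-leaf stage); in the flooded paddy test, barnyardgrass was grown to the 2-leaf stage. After 12 to 14 days in a greenhouse, injury was visually rated against untreated controls on a 0–100 scale (100 = complete control).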
# rice = test: Test C flooded paddy test; format: in vivo, Oryza sativa; conditions: for Plant response rating, Rice: 500 g ai/ha, visual rating after 12 to 14 days
# In short: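 Injury scored visually against controls on a 0 (no effect) to 100 (complete control) scale, 12 to 14 days after treatment in greenhouse. Flooded paddy plants treated at 2-leaf stage; postemergence plants at 1- to 4-leaf stage, 2 to 18 cm tall.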
# wild oat = test: Test C postemergence herbicide test; format: in vivo, Avenafatua
# In short: as §2
# giant foxtail = test: Test C pre-/postemergence herbicide test; format: in vivo, Setaria faberi
# In short: as §1
# kochia = test: Test C pre-/postemergence herbicide test; format: in vivo, Kochia scoparia
# In short: as §1
# [1] = 62 g ai/ha, preemergence, scale 0 to 100
# [2] = 125 g ai/ha, scale 0 (no effect) to 100 (complete control), visual, 12 to 14 days, preemergence
# [3] = 250 g ai/ha, scale 0-100, preemergence
# [4] = 500 g ai/ha, scale 0 to 100 (0 no effect, 100 complete control), visual, 12 to 14 days, preemergence
# [5] = Postemergence, 500 g ai/ha, scale 0 to 100
# [6] = Postemergence, 250 g ai/ha, scale 0 to 100, 0 no effect, 100 complete control
# [7] = postemergence, 125 g ai/ha, scale 0 to 100
# [8] = postemergence, 62 g ai/ha, scale 0 to 100
# [9] = 125 g ai/ha, scale 0 to 100 (0 no effect, 100 complete control)
# [10] = 250 g ai/ha, scale of 0 to 100, 0 is no effect, 100 is complete control
# [11] = scale 0 to 100 (0 no effect, 100 complete control)
# [12] = 31 g ai/ha, scale 0 to 100, last section of Table C, preemergence
compound,measurement,setting,value
CCn1nc(C(C)(C)C)cc1C(=O)Nc1cccc(OC(F)F)c1 [Compound 332],"Plant response rating, Johnsongrass",johnsongrass; [1],0
same,"Plant response rating, Johnsongrass",johnsongrass; [2],10
same,"Plant response rating, Johnsongrass",johnsongrass; [3],50
same,"Plant response rating, Johnsongrass",johnsongrass; [4],80
same,Johnsongrass plant response rating,johnsongrass; [5],5
same,"Plant response rating, Johnsongrass",johnsongrass; [6],5
same,"Plant response rating, Johnsongrass",johnsongrass; [7],5
same,"Plant response rating, Johnsongrass",johnsongrass; [8],0
same,"Plant response rating, Nutsedge, Yellow",yellow nutsedge; [1],0
same,"Plant response rating, Nutsedge, Yellow",yellow nutsedge; [2],0
same,"Plant response rating, Nutsedge, Yellow",yellow nutsedge; [3],0
same,"Plant response rating, Nutsedge, Yellow",yellow nutsedge; [4],0
same,"Nutsedge, Yellow plant response rating",yellow nutsedge; [5],0
same,"Plant response rating, Nutsedge, Yellow",yellow nutsedge; [6],0
same,"Plant response rating, Nutsedge, Yellow",yellow nutsedge; [7],0
same,"Plant response rating, Nutsedge, Yellow",yellow nutsedge; [8],0
same,"Plant response rating, Surinam Grass",Surinam grass; [1],5
same,"Plant response rating, Surinam Grass",Surinam grass; [3],10
same,"Plant response rating, Surinam Grass",Surinam grass; [4],15
same,Surinam Grass plant response rating,Surinam grass; [5],30
same,"Plant response rating, Surinam Grass",Surinam grass; [6],10
same,"Plant response rating, Surinam Grass",Surinam grass; [7],5
same,"Plant response rating, Surinam Grass",Surinam grass; [8],5
same,Chickweed plant response rating,chickweed; [5],100
same,"Plant response rating, Chickweed",chickweed; [6],100
same,"Plant response rating, Chickweed",chickweed; [7],100
same,"Plant response rating, Chickweed",chickweed; [8],60
same,Rice plant response rating,"rice; 62 g ai/ha, scale 0 to 100",0
same,Rice plant response rating,rice; [9],0
same,Rice plant response rating,rice; [10],45
same,"Plant response rating, Rice",rice; [11],70
same,"Oat, Wild plant response rating",wild oat; [5],70
same,"Plant response rating, Oat, Wild",wild oat; [6],70
same,"Plant response rating, Oat, Wild",wild oat; [7],65
same,"Plant response rating, Oat, Wild",wild oat; [8],50
same,"Plant response rating, Foxtail, Giant",giant foxtail; [1],0
same,"Plant response rating, Foxtail, Giant",giant foxtail; [2],20
same,"Plant response rating, Foxtail, Giant",giant foxtail; [3],60
same,"Plant response rating, Foxtail, Giant",giant foxtail; [4],80
same,"Foxtail, Giant plant response rating",giant foxtail; [5],20
same,"Plant response rating, Foxtail, Giant",giant foxtail; [6],15
same,"Plant response rating, Foxtail, Giant",giant foxtail; [7],10
same,"Plant response rating, Foxtail, Giant",giant foxtail; [8],10
same,"Plant response rating, Kochia",kochia; [1],100
same,"Plant response rating, Kochia",kochia; [2],100
same,"Plant response rating, Kochia",kochia; [3],100
same,"Plant response rating, Kochia",kochia; [4],100
same,Kochia plant response rating,kochia; [5],100
same,"Plant response rating, Kochia",kochia; [6],95
same,"Plant response rating, Kochia",kochia; [7],90
same,"Plant response rating, Kochia",kochia; [8],80
CCn1nc(C(C)(C)C)cc1C(=O)Nc1cc(C(=S)N(C)C)ccn1 [Compound 334],"Plant response rating, Johnsongrass",johnsongrass; [1],90
same,"Plant response rating, Johnsongrass",johnsongrass; [2],100
same,"Plant response rating, Johnsongrass",johnsongrass; [3],100
same,"Plant response rating, Nutsedge, Yellow",yellow nutsedge; [12],5
same,"Plant response rating, Nutsedge, Yellow",yellow nutsedge; [1],10
same,"Plant response rating, Nutsedge, Yellow",yellow nutsedge; [2],40
same,"Plant response rating, Nutsedge, Yellow",yellow nutsedge; [3],55
same,"Plant response rating, Surinam Grass",Surinam grass; [1],55
same,"Plant response rating, Surinam Grass",Surinam grass; [3],95
same,Rice plant response rating,"rice; 62 g ai/ha, scale 0 to 100",70
same,Rice plant response rating,rice; [9],75
same,Rice plant response rating,rice; [10],80
same,"Plant response rating, Rice",rice; [11],85
same,"Plant response rating, Oat, Wild",wild oat; [6],95
same,"Plant response rating, Oat, Wild",wild oat; [7],75
same,"Plant response rating, Oat, Wild",wild oat; [8],55
same,"Plant response rating, Foxtail, Giant",giant foxtail; [1],60
same,"Plant response rating, Foxtail, Giant",giant foxtail; [2],80
same,"Plant response rating, Foxtail, Giant",giant foxtail; [3],100
same,"Plant response rating, Kochia",kochia; [1],100
same,"Plant response rating, Kochia",kochia; [2],100
same,"Plant response rating, Kochia",kochia; [3],100
CCOC(=O)c1cccc(NC(=O)c2nn(C(C)(C)CC)nc2CC)c1 [Compound 375],"Plant response rating, Johnsongrass",johnsongrass; [1],0
same,"Plant response rating (0 = no effect, 100 = complete control), Johnsongrass","johnsongrass; 125 g ai/ha, preemergence",5
same,"Plant response rating, Johnsongrass",johnsongrass; [3],5
same,"Plant response rating, Johnsongrass",johnsongrass; [6],10
same,"Plant response rating, Johnsongrass",johnsongrass; [7],5
same,"Plant response rating, Johnsongrass",johnsongrass; [8],5
same,"Plant response rating, Nutsedge, Yellow",yellow nutsedge; [12],0
same,"Plant response rating, Nutsedge, Yellow",yellow nutsedge; [1],0
same,"Plant response rating (0 = no effect, 100 = complete control), Nutsedge, Yellow","yellow nutsedge; 125 g ai/ha, preemergence",0
same,"Plant response rating, Nutsedge, Yellow",yellow nutsedge; [3],0
same,"Plant response rating, Surinam Grass",Surinam grass; [1],55
same,"Plant response rating (0 = no effect, 100 = complete control), Surinam Grass","Surinam grass; 125 g ai/ha, preemergence",75
same,"Plant response rating, Surinam Grass",Surinam grass; [3],80
same,"Plant response rating, Surinam Grass",Surinam grass; [8],20
same,"Plant response rating, Chickweed",chickweed; [6],100
same,"Plant response rating, Chickweed",chickweed; [7],100
same,"Plant response rating, Chickweed","chickweed; postemergence, 31 g ai/ha, scale 0 to 100",100
same,"Plant response rating, Chickweed",chickweed; [8],100
same,"Plant response rating, Oat, Wild",wild oat; [7],55
same,"Plant response rating, Oat, Wild",wild oat; [8],45
same,"Plant response rating, Foxtail, Giant",giant foxtail; [1],70
same,"Plant response rating (0 = no effect, 100 = complete control), Foxtail, Giant","giant foxtail; 125 g ai/ha, preemergence",80
same,"Plant response rating, Foxtail, Giant",giant foxtail; [6],60
same,"Plant response rating, Foxtail, Giant",giant foxtail; [7],45
same,"Plant response rating, Foxtail, Giant",giant foxtail; [8],40
same,"Plant response rating, Kochia",kochia; [1],80
same,"Plant response rating (0 = no effect, 100 = complete control), Kochia","kochia; 125 g ai/ha, preemergence",100
same,"Plant response rating, Kochia",kochia; [3],100
same,"Plant response rating, Kochia",kochia; [6],90
same,"Plant response rating, Kochia",kochia; [7],85
same,"Plant response rating, Kochia",kochia; [8],70
CCNC(=O)c1cccc(NC(=O)c2nn(C(C)(C)C)nc2C)c1 [Compound 392],"Plant response rating, Johnsongrass",johnsongrass; [1],85
same,"Plant response rating (0 = no effect, 100 = complete control), Johnsongrass","johnsongrass; 125 g ai/ha, preemergence",100
same,"Plant response rating, Johnsongrass",johnsongrass; [3],100
same,"Plant response rating, Johnsongrass",johnsongrass; [4],100
same,"Plant response rating, Nutsedge, Yellow",yellow nutsedge; [1],0
same,"Plant response rating (0 = no effect, 100 = complete control), Nutsedge, Yellow","yellow nutsedge; 125 g ai/ha, preemergence",10
same,"Plant response rating, Nutsedge, Yellow",yellow nutsedge; [3],30
same,"Plant response rating, Nutsedge, Yellow",yellow nutsedge; [4],90
same,"Plant response rating, Surinam Grass",Surinam grass; [1],50
same,"Plant response rating (0 = no effect, 100 = complete control), Surinam Grass","Surinam grass; 125 g ai/ha, preemergence",85
same,"Plant response rating, Surinam Grass",Surinam grass; [3],85
same,"Plant response rating, Surinam Grass",Surinam grass; [4],90
same,Rice plant response rating,"rice; 62 g ai/ha, scale 0 to 100",50
same,Rice plant response rating,rice; [9],60
same,Rice plant response rating,rice; [10],75
same,"Plant response rating, Rice",rice; [11],75
same,"Plant response rating, Oat, Wild","wild oat; Postemergence, 500 g ai/ha, scale 0 to 100, 0 no effect, 100 complete control",60
same,"Plant response rating, Oat, Wild",wild oat; [7],40
same,"Plant response rating, Oat, Wild",wild oat; [8],30
same,"Plant response rating, Foxtail, Giant",giant foxtail; [1],65
same,"Plant response rating (0 = no effect, 100 = complete control), Foxtail, Giant","giant foxtail; 125 g ai/ha, preemergence",90
same,"Plant response rating, Foxtail, Giant",giant foxtail; [3],100
same,"Plant response rating, Foxtail, Giant",giant foxtail; [4],100
same,"Plant response rating, Kochia",kochia; [1],75
same,"Plant response rating (0 = no effect, 100 = complete control), Kochia","kochia; 125 g ai/ha, preemergence",80
same,"Plant response rating, Kochia",kochia; [3],100
same,"Plant response rating, Kochia",kochia; [4],100
